Measurements as given in paper PMC7136079 (Translational and Clinical Pharmacology, 2020).
Where two headings read alike, the source gives them in different places.

Key:
[1] = cited from earlier work; for within-subject variability (coefficient of variation) of Cmax: ref unpublished previous study results

| SMILES | AUCinf geometric mean ratio (90% CI) (fed state, ratio of the FDC to the loose combination) | Tmax ([1]; 50 mg) | terminal half-life (t1/2) [1] | time at which maximum concentration (Cmax) was attained [1] | pharmacokinetic dose linearity ([1]; dose range of 50–400 mg) | within-subject variability (coefficient of variation) of Cmax ([1]; fasted state, 2016) | within-subject variability (coefficient of variation) of Cmax ([1]; fed state, 2015) | Tmax (fed state (high fat meal), given as loose combination gemigliptin 50 mg + metformin XR 1,000 mg, n = 30, median [minimum–maximum]) | Tmax (human, plasma, oral) | time to reach Cmax ([1]; extended-release formulations) |
| --- | --- | --- | --- | --- | --- | --- | --- | --- | --- | --- |
| N[C@@H](CC(=O)N1CCc2c(nc(C(F)(F)F)nc2C(F)(F)F)C1)CN1CC(F)(F)CCC1=O [Gemigliptin] | 0.9940 (0.9691–1.0195) | approximately 2 hours | 17.1 h | 2 h | linearity | approximately 23.4% | approximately 20.4% |  |  |  |
| CN(C)C(=N)N=C(N)N [Metformin] |  |  |  |  |  |  |  | 6.00 [4.00–8.03] h | 6.04 h | 4 to 8 h |
